Measured values: PMC7904636 (International journal of pharmaceutics, 2021)

Tests used:
[1] = Solubility in aqueous medium; type: physicochemical; settings: precipitation observed when DMSO solution was diluted with HBSS
A549 cells = settings: toxic at this concentration or higher, ref Zhu et al., 2020; cited from earlier work

Solubility in aqueous medium [1]: very low solubility
SMILES: CC(C)(C)c1cc(C(C)(C)C)c(NC(=O)c2c[nH]c3ccccc3c2=O)cc1O [ivacaftor, Ivacaftor]
Concentration toxic to A549 cells (A549 cells): ≥ 8 µg/mL
